Experimental data taken from ChEMBL document CHEMBL1142877, “Synthesis and biological evaluation of 4-methylideneisoxazolidin-5-ones--a new class of highly cytotoxic alpha-methylidene-gamma-lactones” (Eur J Med Chem, 2007).
pIC50: −log10 of the molar value. ≈ marks a conversion by molar mass, not a printed value. Calls of active or inactive are those of the source. No cut-off for these calls is given here.

Key:
Escherichia coli [1] = assay: Antimicrobial activity against Escherichia coli NCTC 8196; type: functional
[2] = Cytotoxicity against adriamycin-resistant HL60/ADR cells expressing MRP1 after 72 hrs by dye exclusion assay; type: functional, cell-based; details: Homo sapiens
[3] = tested on: Staphylococcus epidermidis; assay: Growth inhibition of Staphylococcus epidermidis ATCC 12228 at 150 ug/mL; type: functional, organism-based
Enterococcus faecalis = assay: Antimicrobial activity against Enterococcus faecalis ATCC 29212; type: functional
[4] = tested on: Staphylococcus epidermidis; assay: Growth inhibition of Staphylococcus epidermidis ATCC 12228 at 300 ug/mL; type: functional, organism-based
Pseudomonas aeruginosa = assay: Antimicrobial activity against Pseudomonas aeruginosa NCTC 6749; type: functional
Staphylococcus aureus [5] = assay: Growth inhibition of Staphylococcus aureus ATCC 29213 at 150 ug/mL; type: functional, organism-based
Candida albicans = assay: Antimicrobial activity against Candida albicans ATCC 10231 at 37.5 ug/mL by MTT reduction assay; type: functional, organism-based
HL-60 = assay: Cytotoxicity against HL60 cells after 72 hrs by dye exclusion assay; type: functional, cell-based; details: Homo sapiens, HL-60, 72 h
Staphylococcus aureus [6] = assay: Growth inhibition of Staphylococcus aureus ATCC 29213 at 300 ug/mL; type: functional, organism-based
Escherichia coli [7] = assay: Antimicrobial activity against Escherichia coli NCTC 8196 at 300 ug/mL; type: functional, organism-based

MIC (Escherichia coli [1]) [µg/mL] | MIC (Enterococcus faecalis) [µg/mL] | MIC (Pseudomonas aeruginosa) [µg/mL] | SMILES | pIC50 [2] | Activity [3] | Activity [4] | Activity (Staphylococcus aureus [5]) | Activity (Candida albicans) | pIC50 (HL-60) | Activity (Staphylococcus aureus [6]) | Activity (Escherichia coli [7])
75 (≈ 409 µM) | ≥ 300 | 300 (≈ 1640 µM) | C=C1C(=O)ON(C)C1C(C)CCC (stereo not given) | 5.60 | Active | Active | Active | Active | 5.39 | Active | 
 |  |  | COc1cccc2c1C(=O)c1c(O)c3c(c(O)c1C2=O)C[C@@](O)(C(=O)CO)C[C@@H]3O[C@H]1C[C@H](N)[C@H](O)[C@H](C)O1 [DOXORUBICIN] |  |  |  |  |  | 7.89 |  | 
 | ≥ 300 | 300 (≈ 1480 µM) | C=C1C(=O)ON(C)C1c1ccc(C)cc1 (stereo not given) | 5.22 | Active | Active | Active | Active |  | Active | inactive
